This experiment relates to Plasmodium falciparum. The experiment can be described thus: GSK_TCMDC: Inhibition of Plasmodium falciparum 3D7 in whole erythrocytes, using parasite LDH activity as an index of growth. Type of experiment: functional, organism-based.

This note sets out measurements from ChEMBL document CHEMBL1157539, “Thousands of chemical starting points for antimalarial lead identification” (Nature, 2010).

Molecules are shown by their SMILES.

The molecule `Cc1sc2ncnc(Sc3nnc(N)s3)c2c1C` showed an XC50 (Plasmodium falciparum, 3D7) of 399 nM.
On the same count and under the same terms, to `COc1ccc2nccc([C@@H](O)CN3CCC(NCc4cc5oc(=O)[nH]c5cc4Cl)CC3)c2c1` belongs 380 nM; to `C=CCNS(=O)(=O)c1ccc(NC(=O)C(C)Oc2ccc([N+](=O)[O-])cc2)cc1` (stereo not drawn), 1220 nM; to `COC(=O)c1ccc(CC(C)NCC(O)c2cccc(Cl)c2Cl)cc1` (stereo not drawn), 548 nM.
Still for that read-out and setting: the result for `CC(C)COc1ccc(Cl)cc1Cc1ccc(-c2nc3ccc(C(F)(F)F)cc3[nH]2)o1` reads 847 nM.
On to `COc1cc(C(F)(F)F)nc2c(CNCCCNc3cc(=O)c4ccccc4[nH]3)scc12`, for which, under “Plasmodium falciparum, 3D7”, the XC50 turned out to be 1180 nM.
On the same count and under the same terms, the result for `COc1cc(C(=O)N2CCN(C(C)C)CC2)ccc1CN(C)CCCCN1CCN(c2cccc(Cl)c2Cl)CC1` reads 704 nM.
In the case of `COc1ccc2nccc(N(C)CC3(O)CCC(NCc4cc5c(cn4)OCCO5)CC3)c2n1` (stereo not drawn), the XC50 (Plasmodium falciparum, 3D7) worked out at 675 nM.
On the same count and under the same terms, the result for `Cc1ccc(NC(=O)c2ccc3ncccc3c2)cc1OC1CCN(CCC(C)C)CC1` reads 694 nM; that for `CCOC(C(=O)OCC1CCCN1C)(c1ccccc1)c1ccccc1` (stereo not drawn), 863 nM; that for `Cc1cccc2nc(-c3ccc(-c4ccc(CNCc5cnn(-c6ccccc6)n5)cc4)cc3)[nH]c12`, 428 nM.
Same read-out and setting: to `Brc1cc(Br)c2c(c1)C(NCCCNc1nc3ncccc3[nH]1)CCN2` (stereo not drawn) belongs 595 nM; to `Cc1cc(C)n(Cc2ccc(C(=O)NCC3CCCCC3)cc2)n1`, 957 nM.
Where the note is “Plasmodium falciparum, 3D7”, `COC(=O)c1ccc(CC(C)NCC(O)c2cccc(I)c2)cc1` (stereo not drawn) returned an XC50 of 1320 nM.
With `COc1cc2c(C3CCN(CC4CCC(NC(=O)/C=C/c5ccc(Cl)c(Cl)c5)CC4)CC3)c[nH]c2cn1` (stereo not drawn), under “Plasmodium falciparum, 3D7”, the XC50 was 423 nM.
Still for that read-out and setting: to `COc1cccc(C2(c3cccc(OC)c3)N=C(N)N(CCCc3ccccc3)C2=O)c1` belongs 260 nM.
The molecule `O=C(/C=C/c1ccc(Cl)cc1)NCCCCCN1CCN(C(=O)C=Cc2ccc(Cl)c(Cl)c2)CC1` registered an XC50 (Plasmodium falciparum, 3D7) of 987 nM.
Where the note is “Plasmodium falciparum, 3D7”, `C[C@@H](NC(=O)NC(CCN1CCC2(CC1)CN(S(C)(=O)=O)c1ccccc12)c1ccc(Cl)c(Cl)c1)c1ccccc1` (stereo partly drawn) registered an XC50 of 903 nM.
In turn, `COc1ccc2c(c1)ncn2-c1cc(OCc2ccncc2Br)c(C(N)=O)s1` displayed an XC50 (Plasmodium falciparum, 3D7) of 609 nM.
`COc1ccc2nccc(N/N=C/c3ccc([N+](=O)[O-])cc3)c2c1` returned an XC50 (Plasmodium falciparum, 3D7) of 712 nM.
For `CCc1sc(-c2ccc(C(C)(C)C)cc2)nc1C(=O)NCCCN1CCCC1=O`, under “Plasmodium falciparum, 3D7”, the XC50 was 988 nM.
As for `CC(C)CNCc1cccc(-c2cccc(CN(CCCN3CCN(C)CC3)C(=O)/C=C/c3ccccc3)c2)c1`, under “Plasmodium falciparum, 3D7”, the XC50 was 926 nM.
`COc1ccc2ncc(F)c(CCN3CCC[C@H](CNCc4ccc5c(n4)NC(=O)CS5)C3)c2n1`: under “Plasmodium falciparum, 3D7”, the XC50 came to 970 nM.
For the molecule `COc1ccc2nccc([C@@H](O)CN3CCC(NCc4ccc5c(c4)NC(=O)CS5)CC3)c2c1`, the XC50 (Plasmodium falciparum, 3D7) was 567 nM.
The same measure, in the same setting: to `CCc1cc(=O)[nH]c(-n2nc(C)cc2NC(=O)CC(c2ccccc2)c2ccccc2)n1` belongs 964 nM.
Take `O=C(Nc1cccc(C(F)(F)F)c1)Nc1cc(F)c(F)cc1Cl`: for the setting “Plasmodium falciparum, 3D7”, the XC50 worked out at 1960 nM.
With `CCc1cc(-c2onc(C(F)(F)F)c2-c2ccccc2)c(O)cc1OC`, the XC50 (Plasmodium falciparum, 3D7) is 787 nM.
Still for that read-out and setting: the result for `Cc1cc(=NN=Cc2ccccc2F)c2ccccc2[nH]1` reads 919 nM.
Still for that read-out and setting: the result for `FC(F)(F)c1cnc(Sc2nnc(-c3ccco3)o2)c(Cl)c1` reads 791 nM; that for `Cc1ccccc1C1CCN(C2CCC(NC(=O)/C=C/c3ccc(F)cc3)CC2)CC1` (stereo not drawn), 1340 nM; that for `CC(C)(C)C/C=C\c1ccc(C(=O)NCC2CC2)cc1`, 850 nM.
Same read-out and setting: the result for `COc1ccc(Cc2c(N)nc3nc(N)nc(N)c3c2C)cc1` reads 189 nM; that for `Cc1ccc(-c2cc(C(=O)Nc3ccc(S(=O)(=O)N4CCCC(C)C4)cc3)[nH]n2)c(O)c1` (stereo not drawn), 280 nM; that for `CCN(CC)CCN(Cc1ccc(-c2ccc(C(F)(F)F)cc2)cc1)C(=O)Cn1c(CCc2ccc(F)c(F)c2F)nc(=O)c2ccccc21`, 795 nM.
The molecule `O=c1ccc2ccc(F)c3c2n1CC3CN1CCC(NCc2cccc(-c3cccs3)c2)CC1` (stereo not drawn) registered an XC50 (Plasmodium falciparum, 3D7) of 834 nM.
`CC[C@H]1CN2CCc3c([nH]c4ccccc34)[C@@H]2C[C@@H]1CC1c2cc(OC)c(OC)cc2CCN1C` (stereo partly drawn): under “Plasmodium falciparum, 3D7”, the XC50 was 1090 nM.
Take `FC(F)(F)c1ccc2[nH]ccc(=NN=Cc3cccnc3)c2c1`: the XC50 (Plasmodium falciparum, 3D7) was found to be 625 nM.
The same measure, in the same setting: the result for `Cc1cc(O)c(-c2ccc(Oc3ccc(F)cc3)cc2)c(C)n1` reads 972 nM; that for `Cc1cc(NC(=O)c2cccs2)ccc1OC1CCN(Cc2ccc(C#N)cc2)CC1`, 721 nM.
`Nc1c(C(=O)NCCCCN2CCN(c3nsc4ccccc34)CC2)sc2ccccc12`: the XC50 (Plasmodium falciparum, 3D7) was found to be 1320 nM.
The molecule `Cc1cc(N(C)CCN(C)C)nc(Nc2ccc(Br)cc2)n1` registered an XC50 (Plasmodium falciparum, 3D7) of 801 nM.
Same read-out and setting: to `Cc1ccc(-c2nc(Nc3ccncc3)c3ccccc3n2)s1` belongs 830 nM; to `CCn1ccc2c(N3CCCCS3(=O)=O)cc(C(=O)N[C@@H](Cc3ccccc3)[C@H](O)CNC(C)(C)c3cccc(C(F)(F)F)c3)cc21`, 133 nM; to `CCOC(=O)N/N=C/[C@H](CCc1ccccc1)NC(=O)[C@H](CC(C)C)NC(=O)c1cc2cccc(OC)c2o1`, 880 nM.
Same read-out and setting: to `Cc1ccccc1C1CCN(C2CCC(NC(=O)c3ccc(-c4cc(C(F)(F)F)nn4C)s3)CC2)CC1` (stereo not drawn) belongs 846 nM.
On the same count and under the same terms, the result for `CC(C)(C)c1ccc(CN2CCC(NC(=O)c3ccc(-c4ccccc4Cl)s3)CC2)cc1` reads 1350 nM.
For the molecule `COc1cccc(/C=C/C(=O)NC2CCC(CN3CCC(c4c[nH]c5ccccc45)CC3)CC2)c1` (stereo not drawn), the XC50 amounted to 834 nM. The molecule also came in with an XC50 (Plasmodium falciparum, 3D7) of 765 nM.
The molecule `Clc1cc(Nc2ncnc3cc(C#C[C@H]4CCCN4)sc23)cc2nc(Cc3ccccc3)[nH]c12` gave an XC50 (Plasmodium falciparum, 3D7) of 852 nM.
Take `COC(=O)c1ccc(CC(C)NCC(O)c2cc(Cl)c(N)c(Cl)c2)cc1` (stereo not drawn): the XC50 (Plasmodium falciparum, 3D7) came out at 877 nM.
Turning to `Cc1ccc2nc3c(cc(C(=O)NCCc4ccccc4)c(=N)n3CCCOC(C)C)c(=O)n2c1`, the XC50 (Plasmodium falciparum, 3D7) was 892 nM.
Molecule `CC(C)N1CCC(N(Cc2ccc(-c3ccc(C(F)(F)F)cc3)cc2)C(=O)Cn2c(SCc3cccc(F)c3F)nc(=O)c3ccccc32)CC1` registered an XC50 (Plasmodium falciparum, 3D7) of 1050 nM.
Same read-out and setting: to `C=CCc1cc(C2CCN(CCCCNC(=O)c3ccc(-c4ccc(C#N)cc4)cc3)CC2)c(OCC(N)=O)c2c1CCCC2` belongs 799 nM.
Still for that read-out and setting: to `COc1cc(F)c2ncc(Cl)c(CCN3CCC(NCc4ccc5c(c4)NC(=O)CS5)CC3)c2c1` belongs 313 nM.
Same read-out and setting: to `COC(=O)c1cccc(CNCc2cccc(-c3cccc(-c4nc5cc(C(F)(F)F)ccc5[nH]4)c3)c2)c1` belongs 172 nM; to `CCc1n[nH]c(C(=O)Nc2cccc(N3CCCC3)c2)c1C`, 1460 nM; to `COc1cc(Cc2cnc(N)nc2N)ccc1OCC(=O)Nc1ccc(C)cc1`, 478 nM.
`COc1cc(SC)c(Br)cc1-c1nc2ccncc2[nH]1`: under “Plasmodium falciparum, 3D7”, the XC50 worked out at 1100 nM.
The same measure, in the same setting: the result for `Cc1ccc(CNC(=O)[C@H](Cc2ccccc2)Nc2cc(C)nc(NCc3ccccc3C)n2)cc1` reads 803 nM.
With `O=C(C=Cc1ccc(Cl)c(Cl)c1)NCCCCCN1CCC(CCCNS(=O)(=O)c2cccc(C(F)(F)F)c2)CC1`, the XC50 (Plasmodium falciparum, 3D7) stood at 477 nM.
With `CC(=O)Nc1[nH]c(-c2ccccc2)nc1C(N)=O`, the XC50 (Plasmodium falciparum, 3D7) was found to be 249 nM.
On the same count and under the same terms, to `CC(Cc1ccc(OCCCCOc2ccccc2)cc1)NCCc1ccc(Oc2ccccc2)cc1` (stereo not drawn) belongs 812 nM.
Under “Plasmodium falciparum, 3D7”, `CCN1CCN(CC(O)CNC(=O)Nc2ccc(Cl)cc2)CC1` (stereo not drawn) gave an XC50 of 150 nM.
For the molecule `CCN(CC)CCc1ccc2c(=O)cc(CCc3cccc(F)c3F)n(CC(=O)N(C)Cc3ccc(-c4ccc(C(F)(F)F)cc4)cc3)c2c1`, where the note is “Plasmodium falciparum, 3D7”, the XC50 amounted to 862 nM.
With `COC(=O)/C=C/c1ccc(CC(C)NCC(O)c2cccc(C(F)(F)F)c2)cc1` (stereo not drawn), the XC50 (Plasmodium falciparum, 3D7) turned out to be 731 nM.
As to `C=Cc1sc(CNCCCNc2cc(=O)c3ccccc3[nH]2)c(C)c1Br`, the XC50 (Plasmodium falciparum, 3D7) was 1050 nM.
Same read-out and setting: the result for `Nc1nc(N)c2c(ccc3[nH]ccc32)n1` reads 1080 nM.
Regarding `O=C(C=Cc1cccc(Cl)c1Cl)NC1CCC(CN2CCC(c3c[nH]c4ccccc34)CC2)CC1` (stereo not drawn), the XC50 amounted to 1140 nM. In addition, the XC50 (Plasmodium falciparum, 3D7) is 680 nM.
`N=C(N)NN=Cc1ccc2ccc3ccccc3c2c1`: the XC50 (Plasmodium falciparum, 3D7) is 376 nM.
Under “Plasmodium falciparum, 3D7”, `COc1ccc(S(=O)(=O)N(CC(=O)NN=C(C)c2cccs2)c2cc(C)cc(C)c2)cc1OC` gave an XC50 of 141 nM.
On the same count and under the same terms, the result for `Cc1cc(OCc2ccncc2)cc2c1C(=O)CC(C)(C)O2` reads 183 nM.
Turning to `CC(=O)Nc1ncc(C(=O)Nc2cccc(-c3cccc(-c4nc5cccc(C)c5[nH]4)c3)c2)s1`, the XC50 (Plasmodium falciparum, 3D7) is 354 nM.
In turn, `COc1ccc(CN2CCCN(Cc3ccc(C(=O)Nc4ccc(Cl)cc4)cc3)CC2)cc1` returned an XC50 (Plasmodium falciparum, 3D7) of 919 nM.
Still for that read-out and setting: the result for `Cc1ccc(NC(=S)NC2CCN(CCCCCNC(=O)/C=C/c3ccc(Cl)c(Cl)c3)CC2)cc1Cl` reads 992 nM; that for `O=S(=O)(c1ccc(NC(S)=NN=Cc2ccccn2)cc1)N1CCCCC1`, 720 nM; that for `CCN1CCN(CCCNc2c3ccc(Cl)cc3nc3ccc(OC)cc23)CC1`, 149 nM.
`COc1ccc(NC(=O)[C@H](CC(C)C)Nc2cc(C)nc(NCCc3ccccc3)n2)cc1`: under “Plasmodium falciparum, 3D7”, the XC50 worked out at 888 nM.
`CC(=O)NCCNc1cc(N2CCc3ncnc(Nc4ccc(OCc5c(F)cccc5F)c(Cl)c4)c3C2)ncn1`: under “Plasmodium falciparum, 3D7”, the XC50 amounted to 160 nM.
On the same count and under the same terms, to `CN(C)CCOc1ccc(NC(=O)Nc2ccnc3c(Br)cccc23)cc1Cl` belongs 842 nM; to `O=C(/C=C/c1ccc(Cl)c(Cl)c1)NCCCCCN1CCC(c2c[nH]c3c(-c4ccccc4)cccc23)CC1`, 246 nM.
On the same count and under the same terms, the result for `CC(CN1CCN(C)CC1)C(=O)Nc1ccc(-c2cccc(-c3nc4cc(C(F)(F)F)ccc4[nH]3)c2)cc1` (stereo not drawn) reads 403 nM.
The molecule `O=C(COc1ccc(Cl)cc1)N1CCC(CN2CCC(c3c[nH]c4ccccc34)CC2)CC1` yielded an XC50 (Plasmodium falciparum, 3D7) of 1100 nM.
In turn, `Cc1cc(O)c(CN(C)Cc2ccc3c(c2)OCCO3)cc1C(C)C` registered an XC50 (Plasmodium falciparum, 3D7) of 672 nM.
In turn, `Cc1cc(N(C)C)nc(Nc2ccc(NC(=O)C3CCCCC3)cc2)n1` returned an XC50 (Plasmodium falciparum, 3D7) of 1110 nM.
For the setting “Plasmodium falciparum, 3D7”, `Cc1cc(N2CCCC2)nc(Nc2ccc(NC(=O)c3ccccc3F)cc2)n1` returned an XC50 of 922 nM.
The same measure, in the same setting: to `O=C(NCCNc1ccnc(Nc2ccc(F)cc2)n1)c1cc2ccccc2s1` belongs 755 nM; to `Cc1[nH]c2cc(F)ccc2c1C1=CCN(CCCCC2(C)C(=O)Nc3ccccc32)CC1` (stereo not drawn), 292 nM.
